Measured values: ChEMBL document CHEMBL4837256, “Discovery and Characterization of a Rapidly Fungicidal and Minimally Toxic Peptoid against Cryptococcus neoformans” (ACS Med Chem Lett, 2021)
In brackets after ≈: the same amount, converted by molar mass. Activity calls are given as the source filed them. The rule behind the calls is not given here. Where a SMILES comes first, the peptide text is derived from it. [ ]: non-standard residue; d: D form. N(tridecyl)Gly = CCCCCCCCCCCCCNCC(=O)O; Gly(N-2-aminoethyl) = NCCNCC(=O)O; Gly(N-cHex) = O=C(O)CNC1CCCCC1; Nlys = NCCCCNCC(=O)O; Sar = CNCC(=O)O

Experiments:
[1] = Selectivity ratio of TD50 for human HepG2 cells to MIC for Cryptococcus neoformans H99S; type: toxicity
[2] = Cytotoxicity against human HepG2 cells assessed as cell death measured after 72 hrs by MTT assay; type: cell-based; details: read-out: TD50
Cryptococcus neoformans [3] = assay: Antifungal activity against Cryptococcus neoformans H99S assessed as inhibition of fungal growth measured after 72 hrs by Plate reader assay; type: functional
Cryptococcus neoformans [4] = assay: Antifungal activity against Cryptococcus neoformans assessed as assessed as half life for fungal killing; type: functional, organism-based
[5] = Selectivity ratio of TD50 for human HaCaT cells to MIC for Cryptococcus neoformans H99S; type: toxicity
[6] = Antifungal activity against Cryptococcus gattii R272 ATCC MYA-4094 assessed as inhibition of fungal growth measured after 72 hrs by Plate reader assay; type: functional, Cryptococcus gattii VGI
Cryptococcus neoformans [7] = assay: Fungicidal activity against Cryptococcus neoformans H99S assessed as fungal killing at 12.5 ug/ml measured after drug wash-out; type: functional, organism-based; details: dose 12.5 µg/ml
[8] = Selectivity ratio of HC10 for human RBC to MIC for Cryptococcus neoformans H99S; type: toxicity; details: red blood cells (RBC)
[9] = Cytotoxicity against human HaCaT cells assessed as cell death measured after 72 hrs by MTT assay; type: cell-based; details: read-out: TD50
Klebsiella pneumoniae = assay: Antibacterial activity against Klebsiella pneumoniae ATCC 13883 assessed as inhibition of bacterial growth measured after 24 hrs by Plate reader method; type: functional
Pseudomonas aeruginosa = assay: Antibacterial activity against Pseudomonas aeruginosa ATCC 25619 assessed as inhibition of bacterial growth measured after 24 hrs by Plate reader method; type: functional
[10] = Protein binding in human serum at 100 ug/ml measured after 24 hrs by RP-HPLC method; type: ADME, cell-free; details: at 100 µg/mL
Enterococcus faecium = assay: Antibacterial activity against Enterococcus faecium ATCC 6569 assessed as inhibition of bacterial growth measured after 24 hrs by Plate reader method; type: functional
Acinetobacter baumannii = assay: Antibacterial activity against Acinetobacter baumannii ATCC 19606 assessed as inhibition of bacterial growth measured after 24 hrs by Plate reader method; type: functional; details: ATCC 19606 = CIP 70.34 = JCM 6841
Cryptococcus neoformans [11] = assay: Antifungal activity against Cryptococcus neoformans H99S assessed as dead cells at 12.5 ug/ml measured after 30 mins by time-to-kill assay; type: functional; details: dose 12.5 µg/ml, 0.5 h
[12] = Selectivity ratio of TD50 for mouse 3T3 cells to MIC for Cryptococcus neoformans H99S; type: toxicity
Candida albicans [13] = assay: Antifungal activity against Candida albicans ATCC10231 assessed as inhibition of fungal growth measured after 24 hrs by Plate reader assay; type: functional
Cryptococcus neoformans [14] = assay: […] antifungal activity against Cryptococcus neoformans H99S assessed as fractional inhibitory concentration index incubated for 72 hrs in presence of 0.03 to 2 ug/ml Amphotericin B by checkerboard microdilution assay; type: functional
[15] = system: Mycolicibacterium smegmatis; assay: Antibacterial activity against Mycobacterium smegmatis assessed as inhibition of bacterial growth measured after 72 hrs by Plate reader method; type: functional
[16] = Antifungal activity against Cryptococcus gattii R265 ATCC MYA-4093 assessed as inhibition of fungal growth measured after 72 hrs by Plate reader assay; type: functional, Cryptococcus gattii VGI
Candida albicans [17] = assay: Antifungal activity against Candida albicans ATCC10231 assessed as inhibition of biofilm formation measured after 24 hrs by fluorescence based plate reader assay; type: functional
[18] = Selectivity ratio of MIC for Cryptococcus gattii R265 ATCC MYA-4093 to MIC for Cryptococcus neoformans H99S measured after 72 hrs by Plate reader assay; type: functional
Escherichia coli = assay: Antibacterial activity against Escherichia coli ATCC 25922 assessed as inhibition of bacterial growth measured after 24 hrs by Plate reader method; type: functional
Staphylococcus aureus = assay: Antibacterial activity against Staphylococcus aureus ATCC 29213 assessed as inhibition of bacterial growth measured after 24 hrs by Plate reader method; type: functional
Cryptococcus neoformans [19] = assay: Antifungal activity against Cryptococcus neoformans H99S assessed as elimination of viable cells at 12.5 ug/ml measured after 1 hr by Plate reader assay; type: functional; details: dose 12.5 µg/ml
Lipid bilayer = assay: Induction of membrane disruption in calcein loaded PC:PE:PS:Ergosterol (4:2:1:0.1) liposomes mimicking Cryptococcus neoformans H99S membrane assessed as increase in fluorescence intensity measured after 1 hr by liposome assay
Cryptococcus neoformans [20] = assay: Indifferent antifungal activity against Cryptococcus neoformans H99S assessed as fractional inhibitory concentration index incubated for 72 hrs in presence of 0.25 to 16 ug/ml flucytosine by checkerboard microdilution assay; type: functional
[21] = Stability of compound assessed as trypsin-mediated compound degradation at 2 mg/ml measured after 24 hrs by RP-HPLC method; type: ADME; details: isolated protein
[22] = Selectivity ratio of MIC for Cryptococcus gattii R272 ATCC MYA-4094 to MIC for Cryptococcus neoformans H99S measured after 72 hrs by Plate reader assay; type: functional
[23] = Cytotoxicity against mouse 3T3 cells assessed as cell death measured after 72 hrs by MTT assay; type: cell-based; details: read-out: TD50
Erythrocyte = assay: Hemolytic activity in human RBC measured after 1 hr by microplate reader method; type: ADME, cell-based
[24] = Cytotoxicity against human HPL1A cells assessed as cell death measured after 72 hrs by MTT assay; type: cell-based; details: read-out: TD50
Enterococcus faecalis = assay: Antibacterial activity against Enterococcus faecalis ATCC 29212 assessed as inhibition of bacterial growth measured after 24 hrs by Plate reader method; type: functional
Cryptococcus neoformans [25] = assay: Antifungal activity against Cryptococcus neoformans H99S assessed as half life for fungal killing at 12.5 ug/ml by Plate reader assay; type: functional, organism-based; details: dose 12.5 µg/ml
Cryptococcus neoformans [26] = assay: Indifferent antifungal activity against Cryptococcus neoformans H99S assessed as fractional inhibitory concentration index incubated for 72 hrs in presence of 0.5 to 32 ug/ml fluconazole by checkerboard microdilution assay; type: functional
Cryptococcus neoformans [27] = assay: Antifungal activity against Cryptococcus neoformans H99S assessed as inhibition of fungal growth preincubated with human serum for 1 hr followed by incubation with fungus and measured after 72 hrs by Plate reader method; type: functional; details: time 73 hrs
[28] = Selectivity ratio of TD50 for human HPL1A cells to MIC for Cryptococcus neoformans H99S; type: toxicity

SMILES: CCCCCCCCCCCCCNCC(=O)N(CC(=O)N(C)CC(=O)N(CCN)CC(=O)N(CC(N)=O)C1CCCCC1)C1CCCCC1
- selectivity ratio [1]: 27
- CC50 at 72 h [2]: 83 µg/mL (≈ 118 µM)
- MIC (Cryptococcus neoformans [3]): 3.13 µg/mL (≈ 4.43 µM)

SMILES: CCCCCCCCCCCCCNCC(=O)N(CCCCN)CC(=O)N(CC(N)=O)Cc1ccco1
- T1/2 (Cryptococcus neoformans [4]): 30 min

SMILES: CCCCCCCCCCCCCNCC(=O)N(CC(=O)N(CCCCN)CC(=O)N(CCN)CC(=O)N(CC(N)=O)C1CCCCC1)C1CCCCC1 (H-[N(tridecyl)Gly][Gly(N-cHex)][Nlys][Gly(N-2-aminoethyl)][Gly(N-cHex)]-NH2)
- selectivity ratio [5]: 35
- MIC [6]: 3.13 µg/mL (≈ 4.1 µM)
- Activity (Cryptococcus neoformans [7]): Active
- selectivity ratio [8]: 49
- CC50 at 72 h [9]: 54 µg/mL (≈ 70.8 µM)
- selectivity ratio [1]: 120
- CC50 at 72 h [2]: 189 µg/mL (≈ 248 µM)
- MIC (Klebsiella pneumoniae): 100 µg/mL (≈ 131 µM)
- MIC (Pseudomonas aeruginosa): 100 µg/mL (≈ 131 µM)
- MIC (Cryptococcus neoformans [3]): 1.56 µg/mL (≈ 2.04 µM)
- PB [10]: Not Active
- MIC (Enterococcus faecium): 6.25 µg/mL (≈ 8.19 µM)
- MIC (Acinetobacter baumannii): 25 µg/mL (≈ 32.8 µM)
- Activity (Cryptococcus neoformans [11]): >50%
- selectivity ratio [12]: 38
- MIC (Candida albicans [13]): 25 µg/mL (≈ 32.8 µM)
- fractional inhibitory concentration index (FICI) (Cryptococcus neoformans [14]): 0.75
- MIC [15]: 3.13 µg/mL (≈ 4.1 µM)
- MIC [16]: 3.13 µg/mL (≈ 4.1 µM)
- MIC (Candida albicans [17]): 100 µg/mL (≈ 131 µM)
- Selectivity ratio [18]: 2
- MIC (Escherichia coli): 12.5 µg/mL (≈ 16.4 µM)
- MIC (Staphylococcus aureus): 6.25 µg/mL (≈ 8.19 µM)
- Activity (Cryptococcus neoformans [19]): 100%
- Activity (Lipid bilayer): Active
- fractional inhibitory concentration index (FICI) (Cryptococcus neoformans [20]): 2
- Stabilty [21]: Stable
- Selectivity ratio [22]: 2
- CC50 at 72 h [23]: 59 µg/mL (≈ 77.3 µM)
- HC10 (Erythrocyte): 77 µg/mL
- CC50 at 72 h [24]: 74 µg/mL (≈ 97 µM)
- MIC (Enterococcus faecalis): 6.25 µg/mL (≈ 8.19 µM)
- T1/2 (Cryptococcus neoformans [25]): 6.5 min
- fractional inhibitory concentration index (FICI) (Cryptococcus neoformans [26]): 2
- MIC (Cryptococcus neoformans [27]): 3.13 µg/mL (≈ 4.1 µM)
- selectivity ratio [28]: 47

SMILES: CCCCCCCCCCCCCNCC(=O)N(CC(=O)N(CCCCN)CC(=O)N(CCN)CC(=O)N(C)CC(N)=O)C1CCCCC1 (H-[N(tridecyl)Gly][Gly(N-cHex)][Nlys][Gly(N-2-aminoethyl)][Sar]-NH2)
- CC50 at 72 h [2]: > 200 µg/mL
- MIC (Cryptococcus neoformans [3]): 6.25 µg/mL (≈ 8.99 µM)

SMILES: CCCCCCCCCCCCCNCC(=O)N(CC(=O)N(CCCCN)CC(=O)N(C)CC(=O)N(CC(N)=O)C1CCCCC1)C1CCCCC1 (H-[N(tridecyl)Gly][Gly(N-cHex)][Nlys][Sar][Gly(N-cHex)]-NH2)
- selectivity ratio [1]: 27
- CC50 at 72 h [2]: 84 µg/mL (≈ 114 µM)
- MIC (Cryptococcus neoformans [3]): 3.13 µg/mL (≈ 4.26 µM)

SMILES: CCCCCCCCCCCCCNCC(=O)N(C)CC(=O)N(CCCCN)CC(=O)N(CCN)CC(=O)N(CC(N)=O)C1CCCCC1 (H-[N(tridecyl)Gly][Sar][Nlys][Gly(N-2-aminoethyl)][Gly(N-cHex)]-NH2)
- CC50 at 72 h [2]: > 200 µg/mL
- MIC (Cryptococcus neoformans [3]): 6.25 µg/mL (≈ 8.99 µM)

SMILES: CNCC(=O)N(CC(=O)N(CCCCN)CC(=O)N(CCN)CC(=O)N(CC(N)=O)C1CCCCC1)C1CCCCC1 (H-[Sar][Gly(N-cHex)][Nlys][Gly(N-2-aminoethyl)][Gly(N-cHex)]-NH2)
- CC50 at 72 h [2]: > 200 µg/mL
- MIC (Cryptococcus neoformans [3]): > 50 µg/mL

SMILES: C[C@@H]1[C@H](O)[C@@H](C)/C=C/C=C/C=C/C=C/C=C/C=C/C=C/[C@H](O[C@@H]2O[C@H](C)[C@@H](O)[C@H](N)[C@@H]2O)C[C@@H]2O[C@](O)(C[C@@H](O)C[C@@H](O)[C@H](O)CC[C@@H](O)C[C@@H](O)CC(=O)O[C@H]1C)C[C@H](O)[C@H]2C(=O)O [AMPHOTERICIN B]
- T1/2 (Cryptococcus neoformans [4]): 240 min
- MIC (Cryptococcus neoformans [3]): 0.25 µg/mL (≈ 0.271 µM)

SMILES: OC(Cn1cncn1)(Cn1cncn1)c1ccc(F)cc1F [FLUCONAZOLE]
- MIC (Cryptococcus neoformans [3]): 2 µg/mL (≈ 6.53 µM)

SMILES: Nc1nc(=O)[nH]cc1F [FLUCYTOSINE]
- MIC (Cryptococcus neoformans [3]): 2 µg/mL (≈ 15.5 µM)
